In patent publication US20100267561A1, “HERBICIDAL PYRIDAZINONE DERIVATIVES” (priority 2007, published 2010):

Assays:
Assay type in all cases: in vivo
[1] = system: wheat (Triticum aestivum); experiment: Test B pre-/postemergence plant response; settings: for Wheat plant response rating: postemergence, 0-100 scale; for Plant response rating, Wheat: Postemergence
In short: (§1)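 Preemergence and postemergence (plants 2-18 cm, 1- to 4-leaf stage) applications used test chemicals in a non-phytotoxic solvent with surfactant. Plants were held in a greenhouse 13 to 15 days, then rated visually against controls on a 0-100 scale (0 no effect, 100 complete control).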

[2] = system: bermudagrass (Cynodon dactylon); experiment: Test B pre-/postemergence plant response; settings: for Bermudagrass plant response rating: 8 g ai/ha, postemergence, 0-100 scale; for Plant response rating, Bermudagrass: Postemergence
In short: as §1

[3] = system: morningglory (Ipomoea coccinea); experiment: Test B pre-/postemergence plant response; settings: for Morningglory plant response rating: postemergence, 0-100 scale; for Plant response rating, Morningglory: Postemergence
In short: as §1

[4] = system: green foxtail (Setaria viridis); experiment: Test B pre-/postemergence plant response; settings: for Foxtail, Green plant response rating: 8 g ai/ha, postemergence, 0-100 scale; for Plant response rating, Foxtail, Green: Postemergence
In short: as §1

[5] = system: Italian ryegrass (Lolium multiflorum); experiment: Test B pre-/postemergence plant response; settings: for Ryegrass, Italian plant response rating: postemergence, 0-100 scale; for Plant response rating, Ryegrass, Italian: Postemergence
In short: as §1

[6] = system: goosegrass (Eleusine indica); experiment: Test B pre-/postemergence plant response; settings: for Goosegrass plant response rating: postemergence, 0-100 scale; for Plant response rating, Goosegrass: Postemergence
In short: as §1

[7] = system: large crabgrass (Digitaria sanguinalis); experiment: Test B pre-/postemergence plant response; settings: for Crabgrass, Large plant response rating: 8 g ai/ha, postemergence, 0-100 scale; for Plant response rating, Crabgrass, Large: Postemergence
In short: as §1

soybean (Glycine max) = experiment: Test B pre-/postemergence plant response; settings: for Soybean plant response rating: postemergence, 0-100 scale; for Plant response rating, Soybean: Postemergence
In short: as §1

[8] = system: surinam grass (Brachiaria decumbens); experiment: Test B pre-/postemergence plant response; settings: for Surinam Grass plant response rating: postemergence, 0-100 scale; for Plant response rating, Surinam Grass: Postemergence
In short: as §1

[9] = system: johnsongrass (Sorghum halepense); experiment: Test B pre-/postemergence plant response; settings: for Johnsongrass plant response rating: postemergence, 0-100 scale; for Plant response rating, Johnsongrass: Postemergence
In short: as §1

[10] = system: cocklebur (Xanthium strumarium); experiment: Test B pre-/postemergence plant response; settings: for Cocklebur plant response rating: 8 g ai/ha, postemergence, 0-100 scale; for Plant response rating, Cocklebur: Postemergence
In short: as §1

[11] = system: winter barley (Hordeum vulgare); experiment: Test B postemergence plant response; settings: for Barley plant response rating: 8 g ai/ha, postemergence, 0-100 scale; for Plant response rating, Barley: Postemergence, scale 0 to 100, 0 no effect, 100 complete control
Experimental: (§2) At the same time, plants selected from these crop and weed species and also winter barley (Hordeum vulgare), canarygrass (Phalaris minor), chickweed (Stellaria media) and windgrass (Apera spica-venti) were treated with postemergence applications of some of the test chemicals formulated in the same manner. Plants ranged in height from 2 to 18 cm (1- to 4-leaf stage) for postemergence treatments.
(§3) Plant species in the flooded paddy test consisted of rice (Oryza sativa), umbrella sedge (Cyperus difformis), ducksalad (Heteranthera limosa) and barnyardgrass (Echinochloa crus-galli) grown to the 2-leaf stage for testing. At time of treatment, test pots were flooded to 3 cm above the soil surface, treated by application of test compounds directly to the paddy water, and then maintained at that water depth for the duration of the test. Treated plants and controls were maintained in a greenhouse for 13 to 15 days, after which time all species were compared to controls and visually evaluated. Plant response ratings, summarized in Table B, are based on a scale of 0 to 100 where 0 is no effect and 100 is complete control. A dash (-) response means no test result.

[12] = system: chickweed (Stellaria media); experiment: Test B postemergence plant response; settings: for Chickweed plant response rating: 8 g ai/ha, postemergence, 0-100 scale; for Plant response rating, Chickweed: Postemergence
Experimental: as §2, §3

[13] = system: windgrass (Apera spica-venti); experiment: Test B postemergence plant response; settings: for Windgrass plant response rating: postemergence, 0-100 scale; for Plant response rating, Windgrass: Postemergence
Experimental: as §2, §3

[14] = 62 g ai/ha, scale 0 to 100, 0 no effect, 100 complete control

## CCc1cc(-c2ccc(Br)cc2)nn1-c1c(O)cnn(CC(F)(F)F)c1=O [Compound 73]
[1]; 8 g ai/ha
  Wheat plant response rating: 5
[1]; 16 g ai/ha
  Wheat plant response rating: 60
[1]; 31 g ai/ha, scale 0 to 100
  Plant response rating, Wheat: 90
[1]; [14]
  Plant response rating, Wheat: 95
[2]
  Bermudagrass plant response rating: 0
[2]; 16 g ai/ha, scale 0 to 100
  Plant response rating, Bermudagrass: 0
[2]; 31 g ai/ha, scale 0 to 100
  Plant response rating, Bermudagrass: 10
[2]; [14]
  Plant response rating, Bermudagrass: 10
[3]; 8 g ai/ha
  Morningglory plant response rating: 0
[3]; 16 g ai/ha
  Morningglory plant response rating: 0
[3]; 31 g ai/ha, scale 0 to 100
  Plant response rating, Morningglory: 0
[3]; [14]
  Plant response rating, Morningglory: 0
[4]
  Foxtail, Green plant response rating: 40
[4]; 16 g ai/ha, scale 0 to 100
  Plant response rating, Foxtail, Green: 70
[4]; 31 g ai/ha, scale 0 to 100
  Plant response rating, Foxtail, Green: 70
[4]; [14]
  Plant response rating, Foxtail, Green: 100
[5]; 8 g ai/ha
  Ryegrass, Italian plant response rating: 45
[5]; 16 g ai/ha
  Ryegrass, Italian plant response rating: 70
[5]; 31 g ai/ha, scale 0 to 100
  Plant response rating, Ryegrass, Italian: 100
[5]; [14]
  Plant response rating, Ryegrass, Italian: 100
[6]; 8 g ai/ha
  Goosegrass plant response rating: 70
[6]; 16 g ai/ha
  Goosegrass plant response rating: 90
[6]; 31 g ai/ha, scale 0 to 100
  Plant response rating, Goosegrass: 90
[6]; [14]
  Plant response rating, Goosegrass: 90
[7]
  Crabgrass, Large plant response rating: 45
[7]; 16 g ai/ha, scale 0 to 100
  Plant response rating, Crabgrass, Large: 70
[7]; 31 g ai/ha, scale 0 to 100
  Plant response rating, Crabgrass, Large: 100
[7]; [14]
  Plant response rating, Crabgrass, Large: 100
Soybean (Glycine max); 8 g ai/ha
  Soybean plant response rating: 0
Soybean (Glycine max); 16 g ai/ha
  Soybean plant response rating: 0
Soybean (Glycine max); 31 g ai/ha, scale 0 to 100
  Plant response rating, Soybean: 10
Soybean (Glycine max); [14]
  Plant response rating, Soybean: 10
[8]; 8 g ai/ha
  Surinam Grass plant response rating: 60
[8]; 16 g ai/ha
  Surinam Grass plant response rating: 90
[8]; 31 g ai/ha, scale 0 to 100
  Plant response rating, Surinam Grass: 90
[8]; [14]
  Plant response rating, Surinam Grass: 100
[9]; 8 g ai/ha
  Johnsongrass plant response rating: 70
[9]; 16 g ai/ha
  Johnsongrass plant response rating: 85
[9]; 31 g ai/ha, scale 0 to 100
  Plant response rating, Johnsongrass: 90
[9]; [14]
  Plant response rating, Johnsongrass: 100
[10]
  Cocklebur plant response rating: 0
[10]; 16 g ai/ha, scale 0 to 100
  Plant response rating, Cocklebur: 0
[10]; 31 g ai/ha, scale 0 to 100
  Plant response rating, Cocklebur: 0
[10]; [14]
  Plant response rating, Cocklebur: 0
[11]
  Barley plant response rating: 0
[11]; 16 g ai/ha
  Plant response rating, Barley: 40
[11]; 31 g ai/ha
  Plant response rating, Barley: 40
[11]; 62 g ai/ha
  Plant response rating, Barley: 70
[12]
  Chickweed plant response rating: 0
[12]; 16 g ai/ha, scale 0 to 100
  Plant response rating, Chickweed: 0
[12]; 31 g ai/ha, scale 0 to 100
  Plant response rating, Chickweed: 0
[12]; [14]
  Plant response rating, Chickweed: 0
[13]; 8 g ai/ha
  Windgrass plant response rating: 50
[13]; 16 g ai/ha
  Windgrass plant response rating: 60
[13]; 31 g ai/ha, scale 0 to 100
  Plant response rating, Windgrass: 80
[13]; [14]
  Plant response rating, Windgrass: 95

## Cc1nn(C)c(=O)c(-n2nc(-c3ccc(Cl)cc3)cc2Cl)c1O [Compound 59]
[1]; 8 g ai/ha
  Wheat plant response rating: 0
[1]; 16 g ai/ha, scale 0 to 100
  Plant response rating, Wheat: 15
[1]; 31 g ai/ha, scale 0 to 100
  Plant response rating, Wheat: 40
[1]; [14]
  Plant response rating, Wheat: 50
[2]
  Bermudagrass plant response rating: 0
[2]; 16 g ai/ha, scale 0 to 100
  Plant response rating, Bermudagrass: 0
[2]; 31 g ai/ha, scale 0 to 100
  Plant response rating, Bermudagrass: 0
[2]; [14]
  Plant response rating, Bermudagrass: 20
[3]; 8 g ai/ha
  Morningglory plant response rating: 0
[3]; 16 g ai/ha, scale 0 to 100
  Plant response rating, Morningglory: 0
[3]; 31 g ai/ha, scale 0 to 100
  Plant response rating, Morningglory: 0
[3]; [14]
  Plant response rating, Morningglory: 0
[4]
  Foxtail, Green plant response rating: 50
[4]; 16 g ai/ha, scale 0 to 100
  Plant response rating, Foxtail, Green: 90
[4]; 31 g ai/ha, scale 0 to 100
  Plant response rating, Foxtail, Green: 90
[4]; [14]
  Plant response rating, Foxtail, Green: 95
[5]; 8 g ai/ha
  Ryegrass, Italian plant response rating: 80
[5]; 16 g ai/ha, scale 0 to 100
  Plant response rating, Ryegrass, Italian: 80
[5]; 31 g ai/ha, scale 0 to 100
  Plant response rating, Ryegrass, Italian: 85
[5]; [14]
  Plant response rating, Ryegrass, Italian: 85
[6]; 8 g ai/ha
  Goosegrass plant response rating: 0
[6]; 16 g ai/ha, scale 0 to 100
  Plant response rating, Goosegrass: 0
[6]; 31 g ai/ha, scale 0 to 100
  Plant response rating, Goosegrass: 0
[6]; [14]
  Plant response rating, Goosegrass: 0
[7]
  Crabgrass, Large plant response rating: 20
[7]; 16 g ai/ha, scale 0 to 100
  Plant response rating, Crabgrass, Large: 45
[7]; 31 g ai/ha, scale 0 to 100
  Plant response rating, Crabgrass, Large: 55
[7]; [14]
  Plant response rating, Crabgrass, Large: 60
Soybean (Glycine max); 8 g ai/ha
  Soybean plant response rating: 0
Soybean (Glycine max); 16 g ai/ha, scale 0 to 100
  Plant response rating, Soybean: 0
Soybean (Glycine max); 31 g ai/ha, scale 0 to 100
  Plant response rating, Soybean: 0
Soybean (Glycine max); [14]
  Plant response rating, Soybean: 0
[8]; 8 g ai/ha
  Surinam Grass plant response rating: 75
[8]; 16 g ai/ha, scale 0 to 100
  Plant response rating, Surinam Grass: 85
[8]; 31 g ai/ha, scale 0 to 100
  Plant response rating, Surinam Grass: 90
[8]; [14]
  Plant response rating, Surinam Grass: 100
[9]; 8 g ai/ha
  Johnsongrass plant response rating: 0
[9]; 16 g ai/ha, scale 0 to 100
  Plant response rating, Johnsongrass: 0
[9]; 31 g ai/ha, scale 0 to 100
  Plant response rating, Johnsongrass: 60
[9]; [14]
  Plant response rating, Johnsongrass: 80
[10]
  Cocklebur plant response rating: 0
[10]; 16 g ai/ha, scale 0 to 100
  Plant response rating, Cocklebur: 0
[10]; 31 g ai/ha, scale 0 to 100
  Plant response rating, Cocklebur: 0
[10]; [14]
  Plant response rating, Cocklebur: 0
[11]
  Barley plant response rating: 0
[11]; 16 g ai/ha
  Plant response rating, Barley: 0
[11]; 31 g ai/ha
  Plant response rating, Barley: 20
[11]; 62 g ai/ha
  Plant response rating, Barley: 50
[12]
  Chickweed plant response rating: 0
[12]; 16 g ai/ha, scale 0 to 100
  Plant response rating, Chickweed: 0
[12]; 31 g ai/ha, scale 0 to 100
  Plant response rating, Chickweed: 0
[12]; [14]
  Plant response rating, Chickweed: 0
[13]; 8 g ai/ha
  Windgrass plant response rating: 0
[13]; 16 g ai/ha, scale 0 to 100
  Plant response rating, Windgrass: 0
[13]; 31 g ai/ha, scale 0 to 100
  Plant response rating, Windgrass: 10
[13]; [14]
  Plant response rating, Windgrass: 50
